Consider three molecules from patent US9981964B2 (Agency for Science, Technology and Research, priority 2013, dated 2018).

Structures are written as SMILES. “Also recorded” adds a separate entry of the source. Read-outs that look alike come from different tables or passages of the source.

One series deals with HPAF-II cells. Briefly: Soft agar colony formation assay, HPAF-II. In kind it is cell-based. To be noted: for IC50: Homo sapiens. The protocol: (§1) AsPC-1 cells were maintained in RPMI164 supplemented with 10% FBS, 2 mM L-glutamine and P/S (100 units/ml penicillin and 100 μg/ml streptomycin). HPAF-II cells were maintained in MEM (Eagles') supplemented with 10% FBS, 2 mM L-glutamine and P/S (100 units/ml penicillin and 100 μg/ml streptomycin). CFPAC-1 cells were maintained in Iscove MEM supplemented with 10% FBS, 2 mM L-glutamine and P/S (100 units/ml penicillin and 100 μg/ml streptomycin).
(§2) 600 μl of 0.6% agar was added to 24-well plate to form the base layer. Then a middle layer of 0.36% agar (containing 5000 cells and serially diluted compound) was added on to the base layer. Finally 500 μl of fresh growth medium was added to the top of the middle layer. The plates were incubated at 37° C. with 5% carbon dioxide in a humidified incubator for 2 weeks. Formation of colonies was observed using a light microscope. When the colony size was larger than 500 μm, 70 μl MTT (5 mg/ml) was added to each well and the plates were incubated at 37° C. for at least 2 hours. Colonies were counted with GelCount® instrument. The colony counts were plotted against compound concentrations using the GraphPad Prism software. The software was also used to perform non-linear curve fitting and calculation of compound concentration that inhibited 50% colony formation.

A further series relates to mammalian PORCN. Briefly: PORCN-null HT1080 cells transfected with mammalian PORCN, WNT3A and STF reporter, luciferase. Type of series: cell-based. To be noted: STF luciferase, FIG. 1. The protocol:
PORCN-null HT1080 cells were transfected with mammalian or Xenopus PORCN expression plasmids, along with WNT3A, STF reporter and mCherry as transfection control. 6 hours after transfection, cells were treated with the compounds or DMSO as indicated, and the following day assayed for luciferase. Xenopus PORCN was resistant to the inhibitory effects of compounds.

In the next series the test system is CFPAC-1 cells. As to the kind of experiment: Soft agar colony formation assay, CFPAC-1. Type of series: cell-based. To be noted: for IC50: Homo sapiens. The protocol:
as §1, §2

Another series concerns HEK293-STF3A cells. As to the kind of experiment: STF3A assay (STF luciferase reporter in Wnt3A-expressing HEK293 cells). Type of series: cell-based. To be noted: Homo sapiens, 24 h, 1 day of treatment. A digest of the protocol:
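HEK293 cells carrying the STF reporter and expressing Wnt3A, seeded 2×10^4 per well overnight, then treated 1 day with compound at final 50 μM to 1.5 nM. Luciferase activity read by luminescence after Steady-Glo reagent, 10 min at room temperature.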

The next series relates to MMTV-Wnt1 tumor. In kind it is in vivo, BALBc mice. To be noted: for % T/C / % TGI / NTRD / T/C / TRD: Day 14; for tumor growth in treated mice: daily treatment for 14 days, FIG. 2 and FIG. 3. The protocol:
8-10 weeks old Female BALBc mice were anesthetised with 150 mg/kg Ketamine +75 mg/kg Xylazine. Under aseptic conditions, skin near the 4th mammary fat pad was incised, Mammary fat pad was tweaked with forceps and tumor fragment ˜2 mm^3 was implanted. The incision was closed using a tissue adhesive. Animals were randomised into groups of eight and treated daily with the test compounds for 14 days. Tumors were measured in two dimensions using calipers, and volume was calculated using the formula: Tumor Volume (mm^3)=[…]. Maximum tumor volume limit was 2000 mm^3.

Another series concerns Palmitoylation of Wnt3a. Briefly: Wnt3A palmitoylation assay (HeLa cells over-expressing V5-Wnt3a, alkyne palmitate, click chemistry). To be noted: 100 nM compound. Type of series: cell-based. The protocol:
The assay used to determine the inhibition of the palmitoylation of Wnts by compound was described by Yap et al, (Yap M C, Kostiuk M A, Martin D D, Perinpanayagam M A, Hak P G, Siddam A, Majjigapu J R, Rajaiah G, Keller B O, Prescher J A, Wu P, Bertozzi C R, Falck J R, Berthiaume L G. 2010. Rapid and selective detection of fatty acylated proteins using omega-alkynyl-fatty acids and click chemistry. J Lipid Res. 51(6):1566-1580) with some modification. 3×10^6 HeLa cells were seeded in 10 cm culture dish and incubated at 37° C. overnight. […] After six hours, the cells were washed with PBS and treated with 100 μM alkyne palmitate in medium with 5% BSA. 100 nM compound or DMSO was added and the cells were incubated overnight at 37° C. The cells were lyzed and 600 μg cell lysate was collected and incubated with anti-V5 antibody (Invitrogen) followed by the pull down of V5-Wnt3a with the addition of Protein A/G agarose beads (Thermo scientific). The pulled down lysates containing V5-Wnt3a was click-reacted with biotin-azide (Invitrogen). The biotin-labelled protein lysate was then separated on SDS-PAGE and transferred to a nitrocellulose membrane. The membrane was incubated with primary anti-V5 antibody, followed by secondary anti-mouse Dylight 680 (Thermo scientific) to detect V5-Wnt3a. […]

A further series deals with AsPC-1 cells. As to the kind of experiment: Soft agar colony formation assay, AsPC-1. In kind it is cell-based. To be noted: for IC50: Homo sapiens. Here is the method: as §1, §2

As a reminder, the IC50 is the concentration needed to halve the response being measured. As for `O=C(CN1CCCC2=C1C(=O)N(C1CC1)C2=O)Nc1ccc(-c2cccnc2)nn1` [Compound 43, 2-(6-cyclopropyl-5,7-dioxo-2,3,4,5,6,7-hexahydro-1H-pyrrolo[3,4-b]pyridin-1-yl)-N-(6-(pyridin-3-yl)pyridazin-3-yl)acetamide], the IC50 with HPAF-II cells (336 h, 50% colony growth inhibition, 2 weeks, read-out: Test 1 IC50) turned out to be 4 nM; with HPAF-II cells (336 h, 50% colony growth inhibition, 2 weeks, read-out: Test 2 IC50) it was 2 nM; with HPAF-II cells (mean of two independent experiments, read-out: Mean IC50), 3 nM; in the series on CFPAC-1 cells (336 h, CFPAC-1, 50% colony growth inhibition, 2 weeks, read-out: Test 1 IC50), 300 nM; in the series with CFPAC-1 cells (336 h, CFPAC-1, 50% colony growth inhibition, 2 weeks, read-out: Test 2 IC50), 140 nM; in the series with CFPAC-1 cells (CFPAC-1, mean of two independent experiments, read-out: Mean IC50), 220 nM. For the same molecule, the concentration for half-maximal inhibition (IC50) in the series with HEK293-STF3A cells is under 100 nM; in the series with AsPC-1 cells (ASPC1, 336 h, AsPC-1, 50% colony growth inhibition, 2 weeks, read-out: Test 1 IC50) it was 4 nM; in the series with AsPC-1 cells (ASPC1, 336 h, AsPC-1, 50% colony growth inhibition, 2 weeks, read-out: Test 2 IC50) it was 5 nM; in the series with AsPC-1 cells (ASPC1, AsPC-1, mean of two independent experiments, read-out: Mean IC50) it was 5 nM. In addition, the Maximum inhibition came to 100% in the series with HPAF-II cells (colony formation); 67% in the series on CFPAC-1 cells (CFPAC-1, colony formation); 79% in the series on AsPC-1 cells (AsPC-1, colony formation). Further, the “inhibition of the activity of mammalian porcupine” value in the series with mammalian PORCN was “inhibit the activity of mammalian porcupine; also recorded: inhibition of the activity of mammalian porcupine”. Moreover, the “% T/C” value in the series on MMTV-Wnt1 tumor (1 mg/Kg daily) is 77.5%; in the series with MMTV-Wnt1 tumor (3 mg/Kg daily) it was 33.7%; in the series on MMTV-Wnt1 tumor (10 mg/Kg daily) it was 18.5%. The entries for the “% TGI” value in the series on MMTV-Wnt1 tumor (1 mg/Kg daily), in the series with MMTV-Wnt1 tumor (3 mg/Kg daily) and in the series with MMTV-Wnt1 tumor (10 mg/Kg daily) were 24%, 72% and 97%, respectively. Also, the NTRD in the series on MMTV-Wnt1 tumor (1 mg/Kg daily), in the series on MMTV-Wnt1 tumor (3 mg/Kg daily) and in the series with MMTV-Wnt1 tumor (10 mg/Kg daily) was 0/8 throughout. Moreover, the T/C is recorded as 0.775 in the series on MMTV-Wnt1 tumor (1 mg/Kg daily), 0.337 with MMTV-Wnt1 tumor (3 mg/Kg daily) and 0.185 in the series with MMTV-Wnt1 tumor (10 mg/Kg daily). Moreover, the TRD with MMTV-Wnt1 tumor (1 mg/Kg daily), in the series on MMTV-Wnt1 tumor (3 mg/Kg daily) and with MMTV-Wnt1 tumor (10 mg/Kg daily) was 0/8 in each case. For the same molecule, in the series on MMTV-Wnt1 tumor, the “tumor growth in treated mice” value is “decreased tumor growth in all the treated mice”. Besides, the “inhibition of palmitoylation of Wnt3a” value in the series with Palmitoylation of Wnt3a is on record as “inhibited; also recorded: inhibition of Palmitoylation of Wnt3a”.

On to `O=C(CN1CCCC2=C1C(=O)N(C1CC1)C2=O)Nc1ccc(-c2cccnc2)cn1` [Compound 14, N-([3,3′-bipyridin]-6-yl)-2-(6-cyclopropyl-5,7-dioxo-2,3,4,5,6,7-hexahydro-1 H-pyrrolo[3,4-b]pyridin-1-yl)acetamide], for which, in the series on mammalian PORCN, the “inhibition of the activity of mammalian porcupine” value was “inhibit the activity of mammalian porcupine”. Besides, in the series on HEK293-STF3A cells, the IC50 is under 100 nM.

Molecule `O=C(CN1CCCC2=C1C(=O)N(C1CC1)C2=O)Nc1ccc(-c2cncc(F)c2)nn1` [Compound 52, 2-(6-cyclopropyl-5,7-dioxo-2,3,4,5,6,7-hexahydro-1H-pyrrolo[3,4-b]pyridin-1-yl)-N-(6-(5-fluoropyridin-3-yl)pyridazin-3-yl)acetamide] registered an IC50 in the series with HEK293-STF3A cells of under 100 nM. Moreover, in the series with MMTV-Wnt1 tumor, the “tumor growth in treated mice” value is given as “decreased tumor growth in all the treated mice”.
